# Results taken from patent publication US12629348B2, “Method and composition for treating osteoarthritis” (Vireo Systems, Inc., priority 2013, dated 2026).
# Tests used:
# [1] = Standard blood chemistry profile of OA canines for trial period; assay type: in vivo, canine; conditions: 36 mg/kg/day oral
# Procedure: The double-blind study was performed on a total of 30 adult canines of various breeds in five different private practice clinics. Owner consent was obtained prior to participation in the study. Each clinic was responsible for enrolling 6 canines into the study. Inclusion criteria for the study consisted of clinical assessment and radiograph confirmation of OA in at least one joint and a score of 22 or greater on the Helsinki chronic pain index (“HCPI”). Use of NSAIDs or other dietary supplements for OA were allowed, provided the current treatment regimens had not been altered for a period of at least three months. A randomized block design was used with canines assigned in a one to one ratio into either placebo (36 mg/kg/day maltose-dextran; Vireo Resources, Plattsmouth, NE) or Alpha-GEE (36 mg/kg/day; Vireo Resources, Plattsmouth, NE) treatment group. The block size was six canines, corresponding to the total number of canines enrolled from each clinic. Group assignments for each canine were blinded to both the owners and attending veterinarian until all the data was collected and reported. Both Alpha-GEE and placebo were provided in 400 mg capsules and owners were instructed on the proper method for daily oral administration of capsules to their canines and provided with the appropriate number of capsules for the duration of the 2-week study. Blood samples were taken at both the start and conclusion of the two-week trial period to monitor for changes in blood chemistry as well as potential changes in inflammatory markers as described below. Owners completed the HCPI prior to starting the study, one-week after starting the study, and a final time at the conclusion of the study at two-weeks.
# In addition to the standard blood chemistry profile, blood samples taken before and at the conclusion of the two-week trial period were analyzed for PGE2 and SAA. Blood samples were collected in heparin tubes for PGE2 and in serum collection tubes for SAA. Both plasma and serum samples were centrifuged at 2000×g for 10 minutes and the plasma and serum supernatants removed and frozen at […] until analyzed for PGE2 and SAA using enzyme-linked immunosorbent assays ([…]). Of the 30 canines enrolled, 8 were excluded from the blood analysis portion of the study due to sampling/storage issues resulting in a lack of a pre- or post-trial sample. As PGE2 is rapidly metabolized in plasma, measurement of PGE2 metabolites is the most reliable method for assessing plasma levels of PGE2. Plasma samples were analyzed for PGE2 using the bicycle PGE2 competitive EIA kit purchased from Cayman Chemical (Ann Arbor, MI). The assay converts PGE2 metabolites into a stable derivative that is measured using EIA. Samples (100 μl) were analyzed in triplicate and PGE2 concentrations determined by use of standard curve. For SAA measurements, a solid phase sandwich EIA kit (Tridelta Development Ltd, Maytooth, Co Kildare, Ireland) was used as described previously.
# serum amyloid A = test: Serum amyloid A (solid phase sandwich EIA) in OA canines; assay type: in vivo, canine; conditions: 36 mg/kg/day oral
# Procedure: The double-blind study was performed on a total of 30 adult canines of various breeds in five different private practice clinics. Owner consent was obtained prior to participation in the study. Each clinic was responsible for enrolling 6 canines into the study. Inclusion criteria for the study consisted of clinical assessment and radiograph confirmation of OA in at least one joint and a score of 22 or greater on the Helsinki chronic pain index (“HCPI”). Use of NSAIDs or other dietary supplements for OA were allowed, provided the current treatment regimens had not been altered for a period of at least three months. […]
# In addition to the standard blood chemistry profile, blood samples taken before and at the conclusion of the two-week trial period were analyzed for PGE2 and SAA. […] Both plasma and serum samples were centrifuged at 2000×g for 10 minutes and the plasma and serum supernatants removed and frozen at […] until analyzed for PGE2 and SAA using enzyme-linked immunosorbent assays (“HA”). […] Plasma samples were analyzed for PGE2 using the bicycle PGE2 competitive EIA kit purchased from Cayman Chemical (Ann Arbor, MI). The assay converts PGE2 metabolites into a stable derivative that is measured using EIA. Samples (100 μl) were analyzed in triplicate and PGE2 concentrations determined by use of standard curve. […]
substance,measurement,setting,value
ethyl (α-guanido-methyl) ethanoate [Alpha-GEE],"Creatinine, post-trial","[1]; mean ± SD after two weeks, pre-trial 1.2 ± 0.7, normal range 0.3-1.4",1.5 ± 0.7 mg/dL
same,"Total Protein, post-trial","[1]; mean ± SD after two weeks, pre-trial 6.6 ± 0.4, normal range 5.4-8.2",6.5 ± 0.4 g/dL
same,"BUN, post-trial","[1]; mean ± SD after two weeks, pre-trial 24 ± 22, normal range 7-25",24 ± 19 mg/dL
same,"ALT, post-trial","[1]; mean ± SD after two weeks, pre-trial 89 ± 99, normal range 10-118",53 ± 37 U/L
same,"Glucose, post-trial","[1]; mean ± SD after two weeks, pre-trial 102 ± 11, normal range 80-110",101 ± 11 mg/dL
same,"ALP, post-trial","[1]; mean ± SD after two weeks, pre-trial 110 ± 104, normal range 20-150",103 ± 131 U/L
same,change in post-trial blood chemistry profiles compared to pre-trial values,[1]; two-week trial,no significant changes
same,"Serum Amyloid A concentration, post-trial","serum amyloid A; mean ± SD after two weeks, pre-trial 673 ± 869, p < 0.05 compared to placebo (1483 ± 1653)",255 ± 221 ng/mL
same,SAA levels compared to placebo at the end of the study,"serum amyloid A; two-week trial, 36 mg/kg/day",significantly lower
